Results from BindingDB's records for doi:10.1016/j.str.2004.10.004 (Plexxikon, 2004).

How the values were obtained:
[1] = target: T1, High affinity cGMP-specific 3',5'-cyclic phosphodiesterase 9A [226-593] (Homo sapiens, UniProt O76083)
T1 construct: 226-593

[2] = target: Dual specificity calcium/calmodulin-dependent 3',5'-cyclic nucleotide phosphodiesterase 1B (Homo sapiens, UniProt Q01064); assay: Phosphodiesterase (PDE) Inhibition Assay; details: pH 7.5; 30 °C
[3] = target: High affinity cAMP-specific and IBMX-insensitive 3',5'-cyclic phosphodiesterase 8A (Homo sapiens, UniProt O60658); assay: Phosphodiesterase (PDE) Inhibition Assay
Chain of High affinity cAMP-specific and IBMX-insensitive 3',5'-cyclic phosphodiesterase 8A (O60658 whole entry, canonical isoform): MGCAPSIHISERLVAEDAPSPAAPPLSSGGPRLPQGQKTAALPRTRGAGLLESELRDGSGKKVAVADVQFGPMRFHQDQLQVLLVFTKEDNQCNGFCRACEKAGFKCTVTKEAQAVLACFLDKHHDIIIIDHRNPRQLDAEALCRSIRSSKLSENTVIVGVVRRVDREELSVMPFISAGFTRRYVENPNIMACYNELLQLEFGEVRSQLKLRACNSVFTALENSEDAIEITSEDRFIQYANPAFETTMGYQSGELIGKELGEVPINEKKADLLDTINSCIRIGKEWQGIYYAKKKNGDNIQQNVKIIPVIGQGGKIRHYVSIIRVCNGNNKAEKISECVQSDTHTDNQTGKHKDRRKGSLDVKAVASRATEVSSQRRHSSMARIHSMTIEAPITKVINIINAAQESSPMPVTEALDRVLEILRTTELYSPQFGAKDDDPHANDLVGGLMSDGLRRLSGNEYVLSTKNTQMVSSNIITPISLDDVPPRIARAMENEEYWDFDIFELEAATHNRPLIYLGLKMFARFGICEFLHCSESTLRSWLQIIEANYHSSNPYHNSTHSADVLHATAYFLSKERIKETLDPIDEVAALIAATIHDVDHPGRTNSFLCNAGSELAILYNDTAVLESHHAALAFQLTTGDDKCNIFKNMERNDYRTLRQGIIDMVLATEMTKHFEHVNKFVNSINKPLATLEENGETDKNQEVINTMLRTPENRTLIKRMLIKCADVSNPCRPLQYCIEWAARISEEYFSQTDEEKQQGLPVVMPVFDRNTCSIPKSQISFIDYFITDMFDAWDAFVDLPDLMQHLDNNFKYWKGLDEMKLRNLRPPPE

[4] = target: T2, Isoform 4 of Dual 3',5'-cyclic-AMP and -GMP phosphodiesterase 11A (PDE11A1) 35-489] (Homo sapiens, UniProt Q9HCR9); assay: Phosphodiesterase (PDE) Inhibition Assay
T2 sequence (Q9HCR9 whole entry): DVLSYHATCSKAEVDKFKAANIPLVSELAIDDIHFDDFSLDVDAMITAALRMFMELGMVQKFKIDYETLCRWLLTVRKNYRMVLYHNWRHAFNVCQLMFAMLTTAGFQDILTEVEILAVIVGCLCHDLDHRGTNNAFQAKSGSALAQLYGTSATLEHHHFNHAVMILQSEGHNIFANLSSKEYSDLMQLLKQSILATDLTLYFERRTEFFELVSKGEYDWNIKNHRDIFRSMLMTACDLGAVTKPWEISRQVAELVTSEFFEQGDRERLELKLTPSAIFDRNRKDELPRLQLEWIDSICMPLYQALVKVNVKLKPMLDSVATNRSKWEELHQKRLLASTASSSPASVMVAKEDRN

[5] = target: T3, cAMP and cAMP-inhibited cGMP 3',5'-cyclic phosphodiesterase 10A [432-779] (Homo sapiens, UniProt Q9Y233); assay: Phosphodiesterase (PDE) Inhibition Assay
T3 construct: 432-779
T3 sequence (Q9Y233 708-1055): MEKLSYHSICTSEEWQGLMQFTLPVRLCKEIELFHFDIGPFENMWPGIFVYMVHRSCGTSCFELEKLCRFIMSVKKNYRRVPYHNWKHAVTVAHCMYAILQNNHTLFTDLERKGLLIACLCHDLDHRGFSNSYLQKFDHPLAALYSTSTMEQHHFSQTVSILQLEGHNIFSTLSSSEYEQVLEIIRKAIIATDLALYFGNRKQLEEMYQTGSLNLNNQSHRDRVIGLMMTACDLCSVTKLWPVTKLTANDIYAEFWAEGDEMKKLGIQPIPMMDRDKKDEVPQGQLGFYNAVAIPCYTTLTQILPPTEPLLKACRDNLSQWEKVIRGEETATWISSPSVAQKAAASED

[6] = target: T4, cGMP-specific 3',5'-cyclic phosphodiesterase [531-875] (Homo sapiens, UniProt O76074); assay: Phosphodiesterase (PDE) Inhibition Assay
T4 construct: 531-875

[7] = target: T5, cGMP-dependent 3',5'-cyclic phosphodiesterase [574-941] (Homo sapiens, UniProt O00408); assay: Phosphodiesterase (PDE) Inhibition Assay
T5 construct: 574-941
T5 sequence (O00408 574-941): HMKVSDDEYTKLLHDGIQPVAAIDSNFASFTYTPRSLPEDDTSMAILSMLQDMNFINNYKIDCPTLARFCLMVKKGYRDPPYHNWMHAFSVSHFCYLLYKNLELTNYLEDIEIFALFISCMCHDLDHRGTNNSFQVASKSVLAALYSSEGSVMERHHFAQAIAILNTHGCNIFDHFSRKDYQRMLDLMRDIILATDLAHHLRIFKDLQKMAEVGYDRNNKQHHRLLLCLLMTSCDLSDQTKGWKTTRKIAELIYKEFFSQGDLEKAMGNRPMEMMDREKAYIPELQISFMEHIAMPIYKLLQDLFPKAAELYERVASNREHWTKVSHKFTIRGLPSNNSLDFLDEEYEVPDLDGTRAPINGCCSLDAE

[8] = target: T6, cGMP-inhibited 3',5'-cyclic phosphodiesterase 3B [650-1084] (Homo sapiens, UniProt Q13370); assay: Phosphodiesterase (PDE) Inhibition Assay
T6 construct: 650-1084
T6 sequence (Q13370 650-1084): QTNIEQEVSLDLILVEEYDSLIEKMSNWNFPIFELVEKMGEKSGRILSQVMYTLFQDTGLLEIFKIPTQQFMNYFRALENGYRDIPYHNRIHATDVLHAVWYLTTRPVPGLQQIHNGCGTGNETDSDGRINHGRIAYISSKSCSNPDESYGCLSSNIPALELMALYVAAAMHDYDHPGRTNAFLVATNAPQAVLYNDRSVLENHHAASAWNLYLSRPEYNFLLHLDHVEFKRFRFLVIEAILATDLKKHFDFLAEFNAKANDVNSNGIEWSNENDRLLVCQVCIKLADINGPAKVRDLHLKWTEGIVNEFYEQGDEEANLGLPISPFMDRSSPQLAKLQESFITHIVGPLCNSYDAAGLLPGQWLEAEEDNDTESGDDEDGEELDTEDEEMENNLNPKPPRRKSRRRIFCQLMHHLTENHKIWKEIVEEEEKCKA

[9] = target: cAMP-specific 3',5'-cyclic phosphodiesterase 4D [372-376,381-715,S375G,I381V,S383G,G384S,V385H,K386M) (Homo sapiens, UniProt Q08499, S375G/I381V/S383G/G384S/V385H/K386M); assay: Phosphodiesterase (PDE) Inhibition Assay
[10] = target: T7, cAMP-specific 3',5'-cyclic phosphodiesterase 7B [91-450] (Homo sapiens, UniProt Q9NP56); assay: Phosphodiesterase (PDE) Inhibition Assay
T7 construct: 91-450
T7 sequence (Q9NP56 91-450): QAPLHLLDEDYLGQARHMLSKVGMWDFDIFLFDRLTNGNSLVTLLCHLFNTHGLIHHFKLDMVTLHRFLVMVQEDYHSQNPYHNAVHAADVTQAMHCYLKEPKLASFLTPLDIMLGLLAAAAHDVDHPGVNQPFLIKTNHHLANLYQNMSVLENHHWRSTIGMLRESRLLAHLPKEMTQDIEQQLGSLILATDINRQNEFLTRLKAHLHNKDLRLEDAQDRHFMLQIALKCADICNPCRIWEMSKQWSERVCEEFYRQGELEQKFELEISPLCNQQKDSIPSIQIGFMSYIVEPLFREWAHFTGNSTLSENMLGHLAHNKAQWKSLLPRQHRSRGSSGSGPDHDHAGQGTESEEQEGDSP

Chain of Dual specificity calcium/calmodulin-dependent 3',5'-cyclic nucleotide phosphodiesterase 1B (Q01064 whole entry): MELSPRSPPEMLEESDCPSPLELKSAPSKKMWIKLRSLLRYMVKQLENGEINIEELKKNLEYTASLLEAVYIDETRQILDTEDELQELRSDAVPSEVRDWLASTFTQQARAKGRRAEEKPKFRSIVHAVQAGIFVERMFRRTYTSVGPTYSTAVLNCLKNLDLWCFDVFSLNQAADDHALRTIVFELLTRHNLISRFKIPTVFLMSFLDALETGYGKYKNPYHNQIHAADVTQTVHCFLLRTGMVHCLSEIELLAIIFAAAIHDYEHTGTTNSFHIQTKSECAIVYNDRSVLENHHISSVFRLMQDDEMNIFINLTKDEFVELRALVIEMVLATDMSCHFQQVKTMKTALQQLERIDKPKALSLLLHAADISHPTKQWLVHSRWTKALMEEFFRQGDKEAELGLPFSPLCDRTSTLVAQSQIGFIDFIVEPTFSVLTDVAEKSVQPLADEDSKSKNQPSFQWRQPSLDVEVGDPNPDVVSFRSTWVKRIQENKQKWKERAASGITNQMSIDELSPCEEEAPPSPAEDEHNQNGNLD
T1 sequence (O76083 226-593): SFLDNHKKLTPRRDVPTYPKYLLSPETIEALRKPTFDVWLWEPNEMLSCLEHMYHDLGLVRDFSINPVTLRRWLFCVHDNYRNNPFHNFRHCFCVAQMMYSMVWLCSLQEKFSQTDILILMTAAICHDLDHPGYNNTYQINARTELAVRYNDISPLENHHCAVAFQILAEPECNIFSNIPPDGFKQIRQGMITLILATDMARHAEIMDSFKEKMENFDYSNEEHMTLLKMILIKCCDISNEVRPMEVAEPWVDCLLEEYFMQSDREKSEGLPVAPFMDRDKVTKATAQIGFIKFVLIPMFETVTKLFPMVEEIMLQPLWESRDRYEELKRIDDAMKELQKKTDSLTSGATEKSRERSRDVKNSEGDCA

| Compound | IC50 [1] [µM] | IC50 [2] [µM] | IC50 [3] [µM] | IC50 [4] [µM] | IC50 [5] [µM] | IC50 [6] [µM] | IC50 ([7]; pH 7.5, 30 °C) [µM] | IC50 [8] [µM] | IC50 [9] [µM] | IC50 [10] [µM] | IC50 [7] [µM] |
| --- | --- | --- | --- | --- | --- | --- | --- | --- | --- | --- | --- |
| COc1ccc(C2(C#N)CCC(C(=O)O)CC2)cc1OC1CCCC1 (stereo not drawn) [Ariflo] | > 200 | 87 | 7 | 21 | 73 | 53 | 160 | 87 |  |  |  |
| COc1cc(-c2ccc(=O)[nH]n2)ccc1OC(F)F [6-[4-(difluoromethoxy)-3-methoxyphenyl]-2,3-dihydropyridazin-3-one] | > 200 | > 200 | 160 | 140 | 14 | 81 | > 200 | 1.5 |  |  |  |
| COc1ccc(C(C)=NOC(N)=O)cc1OC1CCCC1 [(E)-{1-[3-(cyclopentyloxy)-4-methoxyphenyl]ethylidene}amino carbamate] | > 200 | 190 | 120 | 57 | 27 | 53 | 89 | 9.4 | 1 | 0.99 |  |
| CCCc1nc(C)c2c(=O)[nH]c(-c3cc(S(=O)(=O)N4CCN(CC)CC4)ccc3OCC)nn12 |  |  | 57 | 0.24 | 0.88 |  |  |  |  |  | 3.1 |
| COc1ccc([C@@H]2CNC(=O)C2)cc1OC1CCCC1 (racemic) [Adeo] | > 200 | > 200 | > 200 | > 200 |  |  | > 200 | > 200 |  | > 200 |  |
| O=C(Nc1c(Cl)cncc1Cl)c1ccc(OC(F)F)c(OCC2CC2)c1 [DAXAS] | > 200 | > 200 | > 200 | 25 | > 200 | 17 |  | > 200 |  | > 200 | > 200 |
| CN1CC(=O)N2[C@H](c3ccc4c(c3)OCO4)c3[nH]c4ccccc4c3C[C@@H]2C1=O | 150 | 50 | > 200 |  | 19 |  |  | 280 |  | 74 | 130 |
| CCCOc1cc(C2(C)CNC(=O)O2)ccc1OC (racemic) [5-(4-methoxy-3-propoxyphenyl)-5-methyl-1,3-oxazolidin-2-one] | > 200 | > 200 | > 200 | > 200 | 63 | > 200 | > 200 | > 200 |  |  |  |
| COc1ccc(C(=O)Nc2c(Cl)cncc2Cl)cc1OC1CCCC1 [3-(cyclopentyloxy)-N-(3,5-dichloropyridin-4-yl)-4-methoxybenzamide] | > 200 | 68 | > 200 | 1.6 |  | 3.5 |  | 11 |  |  | 54 |
